Assay [1] concerns the target T1, Sodium/glucose cotransporter 2 (Homo sapiens, UniProt P31639).
T1 sequence (P31639 whole entry): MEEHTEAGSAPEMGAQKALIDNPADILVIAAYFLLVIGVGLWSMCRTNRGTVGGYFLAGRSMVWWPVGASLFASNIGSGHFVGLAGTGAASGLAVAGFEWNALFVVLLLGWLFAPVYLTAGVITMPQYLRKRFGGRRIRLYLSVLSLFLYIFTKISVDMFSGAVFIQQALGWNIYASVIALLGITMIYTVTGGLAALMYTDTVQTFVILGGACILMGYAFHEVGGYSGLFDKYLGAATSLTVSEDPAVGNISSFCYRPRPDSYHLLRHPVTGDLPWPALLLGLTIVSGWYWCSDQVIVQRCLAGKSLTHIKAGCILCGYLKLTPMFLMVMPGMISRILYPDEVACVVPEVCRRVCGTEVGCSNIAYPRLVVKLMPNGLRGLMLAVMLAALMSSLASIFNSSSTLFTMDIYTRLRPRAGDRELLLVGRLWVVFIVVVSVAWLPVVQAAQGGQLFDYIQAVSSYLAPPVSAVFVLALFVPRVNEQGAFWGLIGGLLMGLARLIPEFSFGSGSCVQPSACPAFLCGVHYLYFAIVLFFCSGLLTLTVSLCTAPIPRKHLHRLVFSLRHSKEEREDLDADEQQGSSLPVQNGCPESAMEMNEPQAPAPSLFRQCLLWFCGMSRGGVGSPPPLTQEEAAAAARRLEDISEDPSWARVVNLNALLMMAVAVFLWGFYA
Put plainly: Inhibition of SGLT2 (unknown origin).

Assay [2] relates to Platelet. Put plainly: Antiplatelet activity in rabbit platelet rich plasma assessed as inhibition of ADP-induced platelet aggregation at 0.1 mM preincubated for 5 mins followed by ADP addition measured up to 5 mins. The note with it: Oryctolagus cuniculus. The assay is classed as functional.
Assay [3] concerns Mus musculus. In words: Antidiabetic activity in ICR mouse assessed as increase in urinary glucose excretion by measuring urine glucose levels at 20 mg/kg, po administered 30 mins prior to glucose challenge measured after 30 mins. The assay is classed as functional.
Assay [4] concerns Mus musculus. Put plainly: Antidiabetic activity in ICR mouse assessed as increase in urinary glucose excretion by measuring urine glucose levels at 20 mg/kg, po administered 30 mins prior to glucose challenge measured after 15 mins. It is filed as functional.
The test system of assay [5] is Mus musculus. Put plainly: Antihyperglycemic activity in fasting ICR mouse assessed as decrease in plasma glucose AUC (0 to 120 mins) at 20 mg/kg, po administered 30 mins prior to glucose challenge measured after 120 mins by OGTT relative to control. The assay is classed as functional. The arrangement: scale not given: the % may be the effect or the level left.
Assay [6] has as its system Mus musculus. In words: Antidiabetic activity in ICR mouse assessed as increase in urinary glucose excretion by measuring urine glucose levels at 20 mg/kg, po administered 30 mins prior to glucose challenge measured after 120 mins. The assay is classed as functional.
In assay [7] the test system is Platelet. In words: Antiplatelet activity in rabbit platelet rich plasma assessed as inhibition of ADP-induced platelet aggregation at 0.1 mM preincubated for 5 mins followed by ADP addition measured up to 5 mins in presence of NO scavenger carboxy-PTIO. The assay is classed as functional. As to conditions: Oryctolagus cuniculus.
Assay [8] concerns Mus musculus. In words: Antidiabetic activity in ICR mouse assessed as increase in urinary glucose excretion by measuring urine glucose levels at 20 mg/kg, po administered 30 mins prior to glucose challenge measured after 60 mins. It is filed as functional.

By IC50 is commonly meant the concentration that gives 50% inhibition. In assay [1], `CCc1ccc(Cc2ccc3c(c2)[C@]2(OC3)O[C@H](CO)[C@@H](O)[C@H](O)[C@H]2O)cc1` [TOFOGLIFLOZIN ANHYDROUS] displayed an IC50 of 4 nM.

One may read the inhibition as the share of the control response that was lost under treatment. For the compound `O=[N+]([O-])OCCCCOc1ccc(Cc2cc([C@@H]3O[C@H](CO)[C@@H](O)[C@H](O)[C@H]3O)ccc2Cl)cc1`, in the assay with Platelet [2], the inhibition at 100 µM was determined as 14.1%.

With `CCOc1ccc(Cc2cc([C@@H]3S[C@H](CO)[C@@H](O)[C@H](O)[C@H]3O)c(OC)cc2C)cc1` [LUSEOGLIFLOZIN], in assay [1], the midpoint of inhibition, the IC50, lay at 2.3 nM.

With `O=[N+]([O-])OCCCOc1ccc(Cc2cc([C@@H]3O[C@H](CO)[C@@H](O)[C@H](O)[C@H]3O)ccc2Cl)cc1`, the Activity was 2000 mg/dL in the assay with Mus musculus [3]; 500 mg/dL with Mus musculus [4]; 26.3% in the assay on Mus musculus [5]; 500 mg/dL in the assay with Mus musculus [6]; 1000 mg/dL with Mus musculus [8]. The inhibition at 100 µM amounted to 14.4% in the assay with Platelet [2] and 3.64% in the assay on Platelet [7].

In the case of `O=[N+]([O-])OCCOc1ccc(Cc2cc([C@@H]3O[C@H](CO)[C@@H](O)[C@H](O)[C@H]3O)ccc2Cl)cc1`, the inhibition at 100 µM in the assay with Platelet [2] is 11.6%.

`OC[C@H]1O[C@@H](c2ccc(F)c(Cc3cc4ccccc4s3)c2)[C@H](O)[C@@H](O)[C@@H]1O` [IPRAGLIFLOZIN] registered an IC50 in assay [1] of 8.4 nM.
